From US20090274739A1, “METHODS AND COMPOSITIONS FOR TREATING NEOINTIMAL HYPERPLASIA” (THE TRUSTEES OF COLUMBIA UNIVERSITY IN THE CITY OF NEW YORK, priority 2006, published 2009)
Several values for one entry are separate records, joined by “and”; a condition that tells them apart may be missing. Equal values may be shown once. Entries after “also recorded” stand apart in the source; their conditions may differ.

How the values were obtained:
[1] = test system: MAPK (p44/p42, ERK1/2) phosphorylation; assay: Immunoblot of MAPK (ERK1/2, p44/p42) phosphorylation in VSMC; format: cell-based, mouse
Experimental: (§1) Western blot analysis: The cells were plated in a 100-mm culture dish in DMEM supplemented with 20% FBS for 24 h at 37° C., followed by serum starvation for 48 h. Cells were then treated with different reagents for 30 min. Cells were subsequently lysed on ice for 30 min in RIPA buffer [150 mM NaCl, 100 mM Tris (pH 8.0), 1% Triton X-100, 1% deoxycholic acid, 0.1% SDS, 5 mM EDTA, and 10 mM NaF] supplemented with 1 mM sodium vanadate, 2 mM leupeptin, 2 mM aprotinin, 1 mM phenylmethylsulfonyl fluoride (PMSF), 1 mM DTT, and 2 mM pepstatin A. After centrifugation at 14,000 rpm for 30 min, the supernatant was harvested as the total cellular protein extract, and stored at −70° C. The protein concentration was determined using Bio-Rad protein assay reagent (Richmond, Calif.). The total cellular protein extracts were separated by SDS-polyacrylamide gel electrophoresis (SDS-PAGE) and transferred to nitrocellulose membrane in 20 mM Tris-HCl (pH 8.0) containing 150 mM glycine and 20% (v/v) methanol.
(§2) Membranes were blocked with 5% nonfat dried milk in PBS containing 0.05% Tween 20 and incubated with antibodies against phospho-(Thr^202/Tyr^204) p42/p44^MAPK and p42/p44^MAPK, phospho-Akt([…]) and anti-Akt, p70^S6K, 4EBP-1. Blots were washed three times in PBS buffer, followed by incubation with the appropriate HRP-linked IgG. The specific proteins in the blots were visualized using an enhanced chemiluminescence reagent (NEN, Boston, Mass.).
(§3) VSMC were plated on 100-mm dishes, serum starved for 72 h in DMEM containing 0.1% FBS, and stimulated with 0.6 or 6 nM (10 or 100 ng/ml) leptin. Extracts were prepared by brief sonication in HKM buffer [40 mM HEPES-KOH (pH 7.6), 7.5 mM MgCl2, 0.5 mM DTT] or, in the case of Akt phosphorylation studies, by lysing cells on ice for 30 min in RIPA buffer. 70 μg of protein per sample were subjected to immunoblotting by standards protocols. Imaging and densitometry were performed on an Odyssey infrared system (Li-Cor, Lincoln, Neb.).

[2] = test system: murine femoral artery wire injury model (neointimal hyperplasia); assay: Femoral artery wire injury model, morphometry of neointimal formation; format: in vivo, mouse; design: Lumen / Media / Intima / TVA (total vessel area): unit not given here; details: for decrease of neointimal formation compared to vehicle: absence of leptin; for I/M (intima:media ratio) / Intima / Lumen / Media / TVA (total vessel area): mean ± SD
From the text: Animal Models and Drug Treatments. Wild type C57BL/6J background mice and mice deficient for leptin (C57BL/6J-Lepob; ob/ob) or the leptin receptor (C57BL/6J-m+/+Lepdb; db/db) were purchased from Charles Jackson Laboratories, Maine. Mice were obtained at ages 6-8 weeks old and average weight 15 g. Animals were fed standard rodent chow and tap water ad libitum. Procedures and animal care were approved by the Institutional Animal Care and Use Committee. Mice were subjected to femoral artery wire injury or sham injury described below 24 hr prior to starting pharmacological treatments. Sirolimus was administered by intraperitoneal injection once per day for 14 days as a suspension in 0.2% sodium carboxymethyl cellulose and 0.25% polysorbate-80; duplicate experiments were accomplished with 0.5% DMSO. Leptin or LY294002 was administered by intraperitoneal injection once per day for 14 days as a suspension in PBS. Plasma leptin levels were measured at baseline, 3, 6, and 10 hr after leptin injection using an ELISA assay (R&D). Leptin plus the vehicle used for both sirolimus and LY294002 was used as the control group for the treatment groups with sirolimus and LY294002. After the 2-week treatment, animals were processed for femoral artery morphometry.
Femoral Artery Injury Model. Endoluminal injury of bilateral femoral arteries was performed according to the method of Roque et al. with minor modification 27. […] Briefly, to denude and dilate femoral arteries, a 0.014″ angioplasty guidewire (Guidant) was passed endoluminally 3 times to the level of the aortic bifurcation. A sham protocol was performed where the arteries underwent dissection, clamping, and ligature without passage of the guidewire.
Computer-aided quantitative morphometry to measure luminal, medial, intimal, and vessel areas were performed as previously described 27 with minor modification. Mice were euthanized via CO2 asphyxiation prior to en bloc excision of hind limbs. Briefly, multiple segments of the common femoral artery at the level of injury were fixed in 10% Zinc Formalin, embedded in paraffin, sectioned at […] thickness, and subjected to Elastic-Van Gieson staining at a Columbia University Core Histology facility. In many cases, arteries underwent immunohistochemical staining for smooth muscle a-actin to highlight the media and neointima. Photomicrographs were captured on Adobe Photoshop 7.0 and transferred to Scion Image software for quantitative analysis. Specimens were analyzed by two independent operators blinded to the treatment groups. Microsoft Excel software was used to calculate the RNI values from I/M ratios in the absence and presence of pharmacological inhibitors, as detailed in the text.
Surgical Procedures: The mouse femoral artery wire injury model of was used with minor modifications (Roque M, et al., Arterioscler Thromb Vasc Biol, 2000, 20(2):335-42). Briefly, forty-two male mice were studied. Endoluminal injury to the common femoral artery was produced by either 3 passages of a 0.014″ diameter angioplasty guidewire (Guidant, Santa Clara, Calif.). […] While being viewed under a surgical microscope, a groin incision was made and the femoral artery was isolated and temporarily clamped distal to the inguinal ligament. An arteriotomy was performed and the guidewire was passed 3 times to the level of the aortic bifurcation. The artery was then ligated proximal to the arteriotomy. A sham protocol was carried out on the contralateral side where the arteries underwent dissection, temporary clamping, and ligature, without passage of the wire. The formation of the neointima was confirmed in this model as being comprised mainly of VSMCs through immunohistochemical staining of representative sections for α-smooth muscle actin via a commercial kit (Sigma).
For all treatment protocols, rapamycin was administered by intraperitoneal injection once per day, for 14 days, as a suspension in 0.2% sodium carboxymethyl cellulose and 0.25% polysorbate-80. […]

Akt phosphorylation = assay: Immunoblot of Akt phosphorylation in VSMC; format: cell-based, mouse; details: Example 2; rapamycin; leptin 100 ng/ml
Experimental: as §1, §2, §3

[3] = test system: primary murine aortic vascular smooth muscle cells (VSMC); assay: VSMC proliferation assay (Coulter counter / MTS-based); format: cell-based, mouse
Experimental: The methods used in the above experiments were as follows: Cell Culture and VSMC Proliferation Assays. Primary VSMC were isolated from aortic explants of wildtype, ob/ob, or db/db mice in the method of Roque et al. 30. VSMC were routinely cultured in Dulbecco's Modified Eagle's Medium (DMEM) containing either 4500 or 1250 mg/L glucose supplemented with 20% FBS at 37° C. in a 5% CO2 incubator. […] Cells were plated at 200,000 cells/ well of a 6 well dish and subsequently serum starved for 72 hr in DMEM media supplemented with 0.1 % FBS. Leptin dissolved in PBS was added directly to serum-free media at concentrations of 1, 10, or 100 ng/ml with […] LY294002 or U0126, and cells were grown for another 72 hr before harvesting. VSMC proliferation was measured by counting samples using a Coulter counter or using the Cell Titre 96 Aqueous One Solution Cell Proliferation Assay kit (Promega). Cell viability was assessed by Trypan Blue staining.
Proliferation of VSMCs: VSMC proliferation was measured by counting triplicate samples using a Coulter counter or using the CellTitier 96 Aqueous One Solution Cell Proliferation Assay (Promega, Madison, Wis.) kit per manufacturer's instructions. Cell viability was assessed via staining with Trypan Blue.
Murine VSMCs (2×10^4 cells/well) were incubated in a 6-well tissue culture plate for 72 hours in DMEM containing 0.1% FBS with or without insulin (10 or 100 nmol/L) and with 0, 1, 10, or 100 nmol/L rapamycin. Triplicate samples were counted using a Coulter counter and were normalized as percentage of the control group. Cell viability was checked via Trypan blue staining.
Murine VSMCs, seeded 2×10^4 cells/well in a 6-well plate, were starved for 72 hrs in DMEM with 0.1% FBS. Rapamycin, leptin, or insulin in different concentrations indicated in the figure were incubated with VSMCs in DMEM with 0.1% of FBS for 72 hrs. Triplicate samples were counted via a Coulter counter. Cell viability was checked via Trypan blue staining. […] In panel C, VSMCs were exposed to U0126, a specific MEK1/2 inhibitor, or LY294002, a specific PI3K inhibitor.
Primary VSMC were isolated from aortic explants of WT, ob/ob, or db/db mice (46). VSMC proliferation was determined using the Cell Titre Aqueous One Solution Proliferation Assay (Promega, Madison, Wis.). Migration to PDGF-BB was assessed in a modified Boyden chamber assay (47).

[4] = test system: wire-injured femoral artery of hyperglycemic (STZ) mice; assay: Femoral artery wire injury in streptozotocin-induced hyperglycemic mice; format: in vivo, mouse
Experimental: For the studies carried out in hyperglycemic mice, animals received an intraperitoneal injection of 60 mg/kg/d for 5 days of streptozotocin (STZ) in 0.05 mol/L citrate buffer. Surgery was performed 3 days following the final injection. Blood glucose levels were measured prior to injury (representing baseline levels), at time of injury, at euthanasia, and as needed during insulin administration with the OneTouch SureStep® Blood glucose monitoring system (Lifescan, Inc., Milipitas, Calif.). Only animals with blood glucose concentrations >300 mg/dL were included in this study.
Insulin (12-26 U/kg) was administered via an intraperitoneal route twice per day, for 14 days, according to blood glucose measurements.
Morphometry: Mice were euthanized via CO2 asphyxiation and were perfused with 10% Zinc Formalin through the left ventricle at physiological pressure (100 mm Hg). Tissues were excised and fixed overnight in 10% Zinc Formalin, embedded in paraffin, and sectioned at 5 μm thickness. Multiple level sections were cut at 100 pm intervals. For morphometry, tissues were stained with elastic van Gieson stain. Using computer aided morphometry (Scion Image), luminal, medial, intimal, and vessel area, and the lengths of the internal and external elastic laminae were measured as previously described (Roque M, et al., Arterioscler Thromb Vasc Biol, 2000, 20(2):335-42) in a blinded manner. […]

[5] = wire injury + leptin 0.4 mg/kg, SRL 1 mg/kg/d i.p. 14 days
[6] = wire injury + leptin 0.4 mg/kg, SRL 4 mg/kg/d i.p. 14 days
[7] = wire injury + leptin 0.4 mg/kg, SRL 9 mg/kg/d i.p. 14 days
[8] = wire injury, SRL 1 mg/kg/d i.p. 14 days, no leptin
[9] = wire injury, SRL 4 mg/kg/d i.p. 14 days, no leptin
[10] = wire injury, SRL 9 mg/kg/d i.p. 14 days, no leptin

## CO[C@H]1C[C@@H]2CC[C@@H](C)[C@@](O)(O2)C(=O)C(=O)N2CCCC[C@H]2C(=O)O[C@H]([C@H](C)C[C@@H]2CC[C@@H](O)[C@H](OC)C2)CC(=O)[C@H](C)/C=C(\C)[C@@H](O)[C@@H](OC)C(=O)[C@H](C)C[C@H](C)/C=C/C=C/C=C/1C [sirolimus, rapamycin]
[1]; Example 2, rapamycin, leptin 100 ng/ml
  inhibition of leptin-stimulated phosphorylation of ERK1/2: did not inhibit
[2]; sirolimus 1 mg/kg/d
  decrease of neointimal formation compared to vehicle: ~2 fold
[2]; sirolimus 1 mg/kg/d, in the presence of leptin 0.4 mg/kg
  relative neointimal inhibition (RNI): 0.35
[2]; sirolimus 1 mg/kg/d, without leptin, RNI 1 = total inhibition
  relative neointimal inhibition (RNI): 0.51
[2]; sirolimus 4 mg/kg/d
  decrease of neointimal formation compared to vehicle: ~5 fold
[2]; sirolimus 4 mg/kg/d, in the presence of leptin 0.4 mg/kg
  relative neointimal inhibition (RNI): 0.67
[2]; sirolimus 4 mg/kg/d, without leptin
  relative neointimal inhibition (RNI): 0.81
[2]; sirolimus 9 mg/kg/d
  decrease of neointimal formation compared to vehicle: ~5 fold and ~6 fold
[2]; sirolimus 9 mg/kg/d, in the presence of leptin 0.4 mg/kg
  relative neointimal inhibition (RNI): 0.97
[2]; sirolimus 9 mg/kg/d, without leptin
  relative neointimal inhibition (RNI): 0.85
[2]; [5]
  I/M (intima:media ratio): 1.269 ± 0.254
  Intima: 0.024 ± 0.005
  Lumen: 0.010 ± 0.002
  Media: 0.019 ± 0.001
  TVA (total vessel area): 0.056 ± 0.007
[2]; [6]
  I/M (intima:media ratio): 0.654 ± 0.172
  Intima: 0.009 ± 0.001
  Lumen: 0.012 ± 0.004
  Media: 0.015 ± 0.002
  TVA (total vessel area): 0.035 ± 0.006
[2]; [7]
  I/M (intima:media ratio): 0.061 ± 0.015
  Intima: 0.001 ± 0.000
  Lumen: 0.014 ± 0.002
  Media: 0.017 ± 0.003
  TVA (total vessel area): 0.031 ± 0.004
[2]; [8]
  I/M (intima:media ratio): 0.334 ± 0.043
  Intima: 0.005 ± 0.001
  Lumen: 0.012 ± .003
  Media: 0.014 ± 0.001
  TVA (total vessel area): 0.029 ± 0.003
[2]; [9]
  I/M (intima:media ratio): 0.121 ± 0.027
  Intima: 0.001 ± 0.000
  Lumen: 0.012 ± 0.005
  Media: 0.015 ± 0.003
  TVA (total vessel area): 0.028 ± 0.006
[2]; [10]
  I/M (intima:media ratio): 0.094 ± 0.037
  Intima: 0.001 ± 0.000
  Lumen: 0.015 ± 0.002
  Media: 0.015 ± 0.002
  TVA (total vessel area): 0.030 ± 0.004
Akt phosphorylation
  inhibition of leptin-stimulated phosphorylation of Akt: did not inhibit

## N#CC(=C(/N)Sc1ccccc1N)/C(C#N)=C(\N)Sc1ccccc1N [U0126]
[3]
  VSMC proliferation induced by leptin and insulin: weak inhibition; also recorded: not inhibited
  effect on leptin-induced VSMC proliferation: did not significantly alter
  effect on leptin-induced proliferation of murine VSMC: did not significantly alter
[1]; Example 1, data not shown
  leptin-stimulated phosphorylation of MAPK: prevented
[1]; Example 5, U0126 10 μM
  leptin-stimulated phosphorylation of MAPK: prevented

## Insulin: insulin purchased from Calbiochem
[4]; STZ mice, insulin 12-26 U/kg twice per day
  blood glucose levels: reduce blood glucose levels to normal levels
[4]; STZ+INS, insulin 12-26 U/kg i.p. twice per day 14 days, p<0.01
  intima:media ratio: significant increase
[3]; insulin 10 or 100 nmol/L, 72 hours
  VSMC proliferation: induced a dose dependent increase in cell proliferation
